Positions of bridges follow the written chain, without caps; N, C: chain ends. Residues, ends and D or L forms follow the SMILES beside them.

Data set [1] concerns Gram-negative bacteria. The settings on record: Gram-negative test strains.
In data set [2] the test system is Gram-positive bacteria. The settings on record: Gram-positive test strains.
Data set [3] relates to E. coli MDR CI 1057. The class given is cell-based.
The subject of data set [4] is human red blood cells. Description: Hemolytic assay (hemoglobin release). As to conditions: human erythrocytes. The method, then:
To examine the ability of the peptides to permeabilize cytoplasmic membranes of bacterial and mammalian cells, the ONPG test and hemolysis assay were used, respectively. […] The hemolytic activity of AMPs against a suspension of human erythrocytes was determined by the method of double serial dilution in buffered saline followed by incubation for 1.5 h (Figure 2A). […] Next, we used ONPG assay to estimate E. coli inner membrane permeabilization by the peptides.
The hemolytic activity of compounds was performed using human red blood cells (hRBS), in accordance with the previously described approach. Briefly, hRBS of a healthy donor were separated from fresh blood and washed 3 times with ice-cold phosphate-buffered saline (PBS pH 7.4) and centrifuged at 500× g for 10 min; additionally, citrate buffer was added to prevent clotting. Further, supernatant was discarded and erythrocyte suspension was prepared in PBS as 8% (v/v) solution. The test was carried out in the 96-well plate, taking into account two-fold serial dilutions of studied peptides. […] Then the plate was centrifuged at 1000× g for 15 min for the precipitation of erythrocyte. The amount of hemoglobin release was determined by absorption spectroscopy at 405 nm. Triton X-100 (0.1% v/v) was used as a positive control, which underwent a complete lysis of erythrocytes, and PBS working solution was used as a negative control. The percentage hemolysis was calculated by the following formula: Hemolysis (%)=OD405(compound)− OD405 (zero lysis)/OD405(100 % lysis)− OD405 (zero lysis)×100%
The assays were conducted three times. The quantitative data were presented as an average means with standard deviations.

In data set [5] the test system is E. coli ML-35p. The arrangement: method as in 2 sources, one per row (each row's own in cited_ref): ref 4, 19, 27 = [4]; PMID 33291782; doi:10.3390/md18120620; 4. Panteleev P.V. Tsarev A.V. Safronova V.N. Reznikova O.V. Bolosov I.A. Sychev S.V. Shenkarev Z.O. Ovchinnikova T.V. Structure Elucidation and Functional Studies of a Novel β-Hairpin Antimicrobial Pe || [19]; PMID 26814379; doi:10.1002/psc.2843; 19. Panteleev P.V. Bolosov I.A. Ovchinnikova T.V. Bioengineering and Functional Characterization of Arenicin Shortened Analogs with Enhanced Antibacterial Activity and Cell Selectivity J. Pept. Sci. 2 || [27]; PMID 25558400; doi:10.32607/20758251-2014-6-4-99-109; 27. Shamova O.V. Orlov D.S. Balandin S.V. Shramova E.I. Tsvetkova E.V. Panteleev P.V. Leonova Y.F. Tagaev A.A. Kokryakov V.N. Ovchinnikova T.V. Acipensins—Novel Antimicrobial Peptides from Leukocytes ||| ref 4 = [4]; PMID 33291782; doi:10.3390/md18120620; 4. Panteleev P.V. Tsarev A.V. Safronova V.N. Reznikova O.V. Bolosov I.A. Sychev S.V. Shenkarev Z.O. Ovchinnikova T.V. Structure Elucidation and Functional Studies of a Novel β-Hairpin Antimicrobial Pe. As to conditions: at a concentration several-fold higher than MIC; cited from earlier work.

The subject of data set [6] is K. pneumonia ATCC 700603. As to conditions: ATCC 700603, 24 h.
For data set [7], the system named is E. coli CI 214. The settings on record: CI 214, 24 h.
Data set [8] has as its system P. aeruginosa PAO1. The settings on record: PAO1, 24 h.
For data set [9], the system named is E. coli CI 3600. As to conditions: CI 3600, 24 h.
Data set [10] has as its system E. coli ATTC 25922. As to conditions: ATTC 25922, 24 h.
The test system of data set [11] is E. cloacae CI 4172. As to conditions: CI 4172, 24 h.
Data set [12] has as its system E. coli ML-35p. The settings on record: 24 h.
The test system of data set [13] is Staphylococcus aureus 209P. As to conditions: 24 h.
For data set [14], the system named is A. baumanii CI 2675. The settings on record: 24 h.
The test system of data set [15] is Bacillus subtilis B-886. The settings on record: B-886, 24 h.
Data set [16] relates to Micrococcus luteus B-1314. As to conditions: B-1314, 24 h.

Turning to `CC[C@H](C)[C@@H]1NC(=O)[C@@H](NC(=O)[C@@H](NC(=O)[C@@H](N)CCCNC(=N)N)C(C)C)CSSC[C@@H](C(=O)N[C@@H](Cc2c[nH]c3ccccc23)C(=O)O)NC(=O)[C@H](CCCNC(=N)N)NC(=O)[C@H](CCCNC(=N)N)NC(=O)[C@H](Cc2ccc(O)cc2)NC(=O)[C@@H]2CSSC[C@H](NC(=O)[C@H](C(C)C)NC(=O)[C@H](CCCNC(=N)N)NC1=O)C(=O)N[C@@H](CCCNC(=N)N)C(=O)N[C@@H](CC(N)=O)C(=O)NCC(=O)N[C@@H](C(C)C)C(=O)N2` [CT4], the “Geometric mean (GM) of the peptide MICs” value in [1] is 0.59 µM; in data set [2], 6.35 µM.

polymyxin B: the “Initial MIC value” in data set [3] (E. coli MDR CI 1057, Mueller–Hinton medium containing added NaCl, before passages) is given as 0.125 µM. Also, the “increase in MIC value after 9 passages” value in data set [3] (E. coli MDR CI 1057, after just 9 passages) amounted to 64 fold.

Turning to `CC[C@H](C)[C@@H]1NC(=O)[C@@H](NC(=O)[C@@H](NC(=O)[C@H](CCCNC(=N)N)NC(=O)[C@@H]2CCCN2C(=O)[C@@H](N)CO)C(C)C)CSSC[C@@H](C(=O)N[C@@H](Cc2c[nH]c3ccccc23)C(=O)NCC(=O)O)NC(=O)[C@H](CCCNC(=N)N)NC(=O)[C@H](CCCNC(=N)N)NC(=O)[C@H](Cc2ccc(O)cc2)NC(=O)[C@@H]2CSSC[C@H](NC(=O)[C@H](C(C)C)NC(=O)[C@H](CCCNC(=N)N)NC1=O)C(=O)N[C@@H](CCCNC(=N)N)C(=O)N[C@@H](CC(N)=O)C(=O)NCC(=O)N[C@@H](C(C)C)C(=O)N2` [Cap, capitellacin], the “Geometric mean (GM) of the peptide MICs” value in data set [1] amounted to 1 µM; in [2], 8 µM. For the same compound, the “hemolytic effect after 24 h exposure” value in data set [4] (128 µM, 24 h) was found to be 50%. Besides, in [4] (24 h, 32 µM = 64× MIC), the “concentration above which toxic effect was observed after 24 h” value was “above 32 µM”.

On to `CC(C)[C@@H]1NC(=O)CNC(=O)[C@H](CC(N)=O)NC(=O)[C@H](CCCNC(=N)N)NC(=O)[C@@H]2CSSC[C@H](NC1=O)C(=O)N[C@@H](Cc1ccc(O)cc1)C(=O)N[C@@H](CCCNC(=N)N)C(=O)N[C@@H](CCCNC(=N)N)C(=O)N[C@H](C(=O)N[C@@H](Cc1c[nH]c3ccccc13)C(=O)O)CSSC[C@H](NC(=O)[C@@H](NC(=O)[C@@H](N)CCCNC(=N)N)C(C)C)C(=O)N[C@@H](Cc1ccccc1)C(=O)N[C@@H](CCCNC(=N)N)C(=O)N[C@@H](C(C)C)C(=O)N2` [CT6], for which the “Geometric mean (GM) of the peptide MICs” value in [1] worked out at 0.55 µM; in data set [2], 6.35 µM.

Consider arenicin-1, for which, in [5], the “membrane permeabilization after 60 min” value was “almost full membrane permeabilization”.

For `CC[C@H](C)[C@@H]1NC(=O)[C@@H](NC(=O)[C@@H](NC(=O)[C@@H](N)CCCNC(=N)N)C(C)C)CSSC[C@@H](C(=O)N[C@@H](Cc2c[nH]c3ccccc23)C(=O)O)NC(=O)[C@H](CCCNC(=N)N)NC(=O)[C@H](CCCNC(=N)N)NC(=O)[C@H](Cc2ccc(O)cc2)NC(=O)[C@@H]2CSSC[C@H](NC(=O)[C@H](C(C)C)NC(=O)[C@H](CCCNC(=N)N)NC1=O)C(=O)N[C@@H](Cc1ccc(O)cc1)C(=O)N[C@@H](CCCNC(=N)N)C(=O)NCC(=O)N[C@@H](C(C)C)C(=O)N2` [CT7] (H-RVCIRVCYRGVCYRRCW-OH; disulfide 3-16, 7-12), the “Minimum Inhibitory Concentration” value is on record as 4 µM in data set [6]; 0.25 µM in data set [7]; 1 µM in data set [8]; 0.25 µM in data set [9]; 0.25 µM in data set [10]; 2 µM in data set [11]. Besides, the “Minimum Inhibitory Concentration” value in data set [12] is on record as 0.5 µM; in [13], 2 µM; in data set [14] it was 0.125 µM; in [15], 4 µM; in data set [16], 1 µM. For the same compound, the “Geometric mean (GM) of the peptide MICs” value was determined as 0.55 µM in data set [1] and 2 µM in data set [2]. Moreover, the “maximum level of lysis (hemolysis)” value in [4] (128 μM peptide, 1.5 h incubation, PBS, 37 °C, absorbance 405 nm, Triton X-100 = 100%) is reported as around 50%.

On to `CC[C@H](C)[C@@H]1NC(=O)[C@@H](NC(=O)[C@@H](NC(=O)[C@H](CCCNC(=N)N)NC(=O)[C@@H]2CCCN2C(=O)[C@H](CO)NC(=O)[C@@H](N)CCCNC(=N)N)C(C)C)CSSC[C@@H](C(=O)N[C@@H](Cc2c[nH]c3ccccc23)C(=O)NCC(=O)O)NC(=O)[C@H](CCCNC(=N)N)NC(=O)[C@H](CCCNC(=N)N)NC(=O)[C@H](Cc2ccc(O)cc2)NC(=O)[C@@H]2CSSC[C@H](NC(=O)[C@H](C(C)C)NC(=O)[C@H](CCCNC(=N)N)NC1=O)C(=O)N[C@@H](CCCNC(=N)N)C(=O)N[C@@H](CC(N)=O)C(=O)NCC(=O)N[C@@H](C(C)C)C(=O)N2` [CT2], for which the “Geometric mean (GM) of the peptide MICs” value in data set [1] was determined as 0.46 µM; in data set [2], 3.17 µM.

`CC[C@H](C)[C@@H]1NC(=O)[C@@H](NC(=O)[C@H](Cc2c[nH]c3ccccc23)NC(=O)[C@@H](N)CCCCN)CSSC[C@@H](C(=O)N[C@@H](CCCNC(=N)N)C(=O)O)NC(=O)[C@H](CCCNC(=N)N)NC(=O)[C@H](CCCNC(=N)N)NC(=O)[C@H](Cc2ccc(O)cc2)NC(=O)[C@@H]2CSSC[C@H](NC(=O)[C@H](C(C)C)NC(=O)[C@H](CCCNC(=N)N)NC1=O)C(=O)N[C@@H](CCCNC(=N)N)C(=O)N[C@@H](CC(N)=O)C(=O)NCC(=O)N[C@@H](C(C)C)C(=O)N2` [CT5]: the “Minimum Inhibitory Concentration” value in data set [6] came out at 4 µM; in [7], 0.5 µM; in data set [8] it was 4 µM; in [9] it was 0.5 µM; in data set [10], 0.5 µM; in [11], 4 µM. Besides, the “Minimum Inhibitory Concentration” value is 0.5 µM in data set [12]; 8 µM in [13]; 0.5 µM in data set [14]; 32 µM in [15]; 8 µM in data set [16]. Moreover, the “Geometric mean (GM) of the peptide MICs” value came to 1.09 µM in data set [1] and 12.7 µM in data set [2].

For the compound protegrin-1, the “membrane permeabilization after 60 min” value in data set [5] is listed as “almost full membrane permeabilization”.

Take `CC[C@H](C)[C@@H]1NC(=O)[C@@H](NC(=O)[C@@H](NC(=O)[C@H](CCCNC(=N)N)NC(=O)[C@@H]2CCCN2C(=O)[C@@H](N)CO)C(C)C)CSSC[C@@H](C(=O)N[C@@H](Cc2c[nH]c3ccccc23)C(=O)O)NC(=O)[C@H](CCCNC(=N)N)NC(=O)[C@H](CCCNC(=N)N)NC(=O)[C@H](Cc2ccc(O)cc2)NC(=O)[C@@H]2CSSC[C@H](NC(=O)[C@H](C(C)C)NC(=O)[C@H](CCCNC(=N)N)NC1=O)C(=O)N[C@@H](CCCNC(=N)N)C(=O)N[C@@H](CC(N)=O)C(=O)NCC(=O)N[C@@H](C(C)C)C(=O)N2` [CT3]: the “Geometric mean (GM) of the peptide MICs” value in [1] was 1.09 µM; in data set [2], 10.08 µM.

The record behind these values is PMC8953592, “Mechanism of Action and Therapeutic Potential of the β-Hairpin Antimicrobial Peptide Capitellacin from the Marine Polychaeta Capitella teleta” (Marine Drugs, 2022).
